The source of these data is paper PMC2811193, “Complementary Roles in Cancer Prevention: Protease Inhibitor Makes the Cancer Preventive Peptide Lunasin Bioavailable” (PLoS ONE, 2010).

Series [1] is described as follows: Bioavailability of 3H-lunasin after oral gavage with LES in CD-1 mice. In kind it is in vivo. As for the experimental part: Bioavailability studies in mice were done at North View Pacific Laboratories (Hercules, CA, USA), according with the Animal Care and Use Committee (ACUC) human guidelines. CD-1 mice (3-5 weeks old) were purchased from Jackson Laboratories (Bar Harbor, ME, USA) and conditioned on AIN76A diet for one week. Forty mice (20 male and 20 female) were fasted for 8 hrs before oral administration by gavage. Mice were separated into two groups, a control group receiving 240 mg of LES formulation and a treatment group receiving 240 mg of LES formulation plus 8 µCi of ^3H-lunasin (SibTech, Inc. Brookfield, CT, USA) in 0.1 mL of 10% sucrose solution. Four mice of each group were sacrificed at 3, 6, 9, 12 and 24 hrs after oral administration. The tissue samples were collected and prepared for scintillation counting by solubilizing in TS-2 tissue solubilizer (Research Products International Corp., Chicago, IL, USA) and addition of 15% benzoyl peroxide. Each sample was read in 5 ml of HionicFluor cocktail mix using a 1600TR liquid scintillation counter (Packard Inst. Meriden CT, USA).
Supplementary file pone.0008890.s001.tif: Figure S1 Recovery of ^3H-lunasin dose (expressed in percentage) in (-▴-) total, (-•-) tissues, and (-o-) gastrointestinal contents of mice at 3, 6, 9, 12, and 24 hours post-gavage of lunasin-enriched soy (LES). […]

Series [2] concerns MDA-MB-231 tumor xenografts. Put plainly: Breast cancer prevention in MDA-MB-231 xenograft mouse model. The format is in vivo, athymic NCr-nu/nu mice. Particulars: for tumor incidence (mice showing tumors) / tumor incidence lower compared with the BBI group / tumor incidence lower compared with the control: seven weeks post-cells injection. How it is done:
Human MDA-MB-231 breast cancer cells were obtained from ATCC and grown in Leibovitz's L-15 Medium supplemented with 10% FBS, 100 unit/ml penicillin, and 100 µg/ml streptomycin (Invitrogen), in a humidified atmosphere at 37°C.
Mice protocol was approved by ACUC (University of California, Berkeley, CA, USA). Thirty-two six weeks-old athymic NCr-nu/nu mice (National Cancer Institute, Frederick, MD, USA) were acclimatized for 1 week and randomly divided into four groups (n = 8): control group (receiving PBS), BBI-group (receiving BBI at 20 mg/kg body weight), and two lunasin-groups (receiving synthetic lunasin [Chengdu KaiJie Bio-Pharmaceutical Co., Chengdu, P.R. China] at 20 mg/kg body weight and 4 mg/kg body weight). After two months of i.p. treatment three times a week, mice were injected subcutaneously in the right flank with 1×10^7 MDA-MB-231 cells suspended in 0.1 ml of Matrigel Basement Membrane Matrix (Becton Dickinson, Bedford, MA, USA). Tumor growth was monitored by palpation, and the onset when tumors were detectable was noted. Tumor size was measured with calipers, and tumor volume was calculated assuming the shape as ellipsoid. Tumor incidence in percentage was calculated as the number of tumor-bearing mice divided by the total number of mice in each group, whereas tumor generation was calculated as the total number of tumors divided by total number of mice in each group. The volume of the tumor was determined using the following formula: tumor volume = length × width^2 ×0.523 [41].
At the end of the experiment, animals were sacrificed, and tumors were dissected and weighed. Individual tumors were split for fixation in the Shando Glyo-Fixx™ (Thermo Scientific, Pittsburgh, PA, USA) for histological examination. The paraffin-embedded sections were stained with hematoxylin and eosin (H&E).

The test system of the next series is MDA-MB-231 tumors. As to the kind of experiment: In situ TUNEL assay for apoptosis in xenograft tumor sections. In kind it is in vivo, athymic NCr-nu/nu mice. Particulars: lunasin 20 and 4 mg/kg (P = 0.0088, 0.0141 vs control), BBI 20 mg/kg i.p. As for the experimental part: In situ terminal deoxynucleotidyl transferase-mediated dUTP nick end labeling (TUNEL) assay was performed using ApopTag Detection Kit (Millipore, USA & Canada) and ran based on the manufacturer's protocol. Briefly, deparaffinized and rehydrated sections were pretreated with 20 µg/mL proteinase K for 15 min and incubated with terminal transferase and digoxigenin dUTP at 37°C for 1 h. After washing, sections were incubated with antidigoxigenin rhodamine (Millipore) and DAPI (Invitrogen), and slides were visualized by fluorescent microscopy (Axiophot 381). The apoptotic cells were calculated as percentage of positive cells over total number of cells counted in microscope at 400× magnification.

The subject of the next series is skin papilloma. Particulars: applied topically at 250 mg/week; SENCAR mice; cited from earlier work. From the text: […] […] This is consistent with another observation that lunasin slows down epidermal cell proliferation in mouse skin in the absence and presence of DMBA using a ^2H2O label ...
Where [3] appears, read: 4 mg/kg body weight i.p., n = 8.

In the case of `CC[C@H](C)[C@H](NC(=O)[C@H](CCCCN)NC(=O)[C@H](CCC(=O)O)NC(=O)[C@H](CCSC)NC(=O)[C@@H](NC(=O)[C@H](Cc1c[nH]cn1)NC(=O)[C@H](CCCCN)NC(=O)[C@H](CCC(=O)O)NC(=O)[C@H](CS)NC(=O)[C@@H]1CCCN1C(=O)[C@@H](NC(=O)[C@H](CC(C)C)NC(=O)[C@H](CC(N)=O)NC(=O)[C@@H](NC(=O)CNC(=O)[C@H](CCC(N)=O)NC(=O)[C@H](CC(C)C)NC(=O)[C@H](CCC(N)=O)NC(=O)[C@H](CCCCN)NC(=O)[C@H](CCCNC(=N)N)NC(=O)[C@H](CS)NC(=O)[C@H](CO)NC(=O)[C@H](CC(=O)O)NC(=O)[C@H](CCC(N)=O)NC(=O)[C@H](CCC(N)=O)NC(=O)[C@H](Cc1c[nH]cn1)NC(=O)[C@H](CCC(N)=O)NC(=O)[C@H](Cc1c[nH]c2ccccc12)NC(=O)[C@H](CCCCN)NC(=O)[C@@H](N)CO)C(C)C)[C@@H](C)O)[C@@H](C)CC)C(=O)N[C@@H](CCC(N)=O)C(=O)NCC(=O)N[C@@H](CCCNC(=N)N)C(=O)NCC(=O)N[C@@H](CC(=O)O)C(=O)N[C@@H](CC(=O)O)C(=O)N[C@@H](CC(=O)O)C(=O)N[C@@H](CC(=O)O)C(=O)N[C@@H](CC(=O)O)C(=O)N[C@@H](CC(=O)O)C(=O)N[C@@H](CC(=O)O)C(=O)N[C@@H](CC(=O)O)C(=O)N[C@@H](CC(=O)O)C(=O)O` [lunasin], the “total oral dose of lunasin absorbed” value in series [1] (3 hrs post-gavage, 3H-labelled synthetic lunasin (8 µCi) mixed with 240 mg LES, CD-1 mice fasted 8 hrs, scintillation counting of tissues) is listed as “approximately 30%”. For the same compound, the “crossing of the blood-brain barrier” value in series [1] (oral gavage of 3H-lunasin with LES, CD-1 mice, 3H radioactivity in brain) is “able to cross the blood-brain barrier”. The “tumor incidence (mice showing tumors)” value came to 50% in series [2] (4 mg/kg body weight i.p. three times a week, n = 8) and 38% in series [2] (20 mg/kg body weight i.p. three times a week, n = 8). Besides, the “decrease of the sizes of tumors (tumor volume) versus control mice” value came out at 34% in series [2] (setting [3]) and 23% in series [2] (20 mg/kg body weight i.p., n = 8). For the same compound, the “tumor generation lower relative to BBI group” value in series [2] (setting [3]) was determined as 69%. Also, the “tumor incidence lower compared with the BBI group” value is 43% in series [2] (4 mg/kg body weight i.p.) and 57% in series [2] (20 mg/kg body weight i.p.). Moreover, the results for the “tumor incidence lower compared with the control” value in series [2] (4 mg/kg body weight i.p.) and in series [2] (20 mg/kg body weight i.p.) were 33% and 49%, respectively. In series [2] (4 mg/kg body weight i.p., total number of tumors / total number of mice, P = 0.029 vs control, n = 8), the “tumor generation lower relative to control” value came to 70%. The tumor generation entry in series [2] (20 mg/kg body weight i.p., versus vehicle-treated group) is “reduced”. In addition, the “weight of tumors at the end of the experiment” value in series [2] (both doses of lunasin (20, 4 mg/kg) compared to control-group (P = 0.2134, 0.1880) and BBI-group (P = 0.0909, 0.0569)) is “lower”. In addition, the body weight entry in series [2] (i.p. three times a week, BBI 20 mg/kg, lunasin 20 and 4 mg/kg body weight, compared among the four groups, n = 8) is listed as “No significant differences”. Also, in series [2] (lunasin 20 and 4 mg/kg i.p.), the appearance of tumors entry is “delay in the appearance of tumors”. The “TUNEL-positive apoptotic cells in tumors” value in the series with MDA-MB-231 tumors is “significantly increased apoptosis”. In addition, in the series with skin papilloma, the “suppression of skin papilloma formation compared with the control” value was 70%.
